Experimental data taken from EP0531958A1, “6-Aminoquinolones, their synthesis and their use as antibacterial agents” (MEDIOLANUM FARMACEUTICI S.P.A., priority 1991, dated 1993).
Converted amounts (≈) assume the structure as drawn. Read-outs that look alike come from different tables or passages of the source.

What was measured:
Format in all cases: cell-based
[1] = tested on: Pseudomonas aeruginosa CNUR 2; test: MIC test, agar dilution with Steers multiwell inoculator; settings: CNUR2, TSA dishes, 24 h at 35°C, read-out: Minimum Inhibiting Concentration
Protocol: (§1) As to the antibacterial activity, there was determined the Least (Minimum) Inhibiting Concentration (MIC), by working according to the following operative conditions.
(§2) There were used suspensions of test germs (5 gram-positive and 15 gram-negative) having a known titre, kept freezed at -80°C and diluted, at the time of use, in peptonized water up to a concentration of 1-2.10⁷ cfu/ml.
(§3) A few mg of the products, according to the invention were weighed sufficient for preparing parent solutions in DMSO + NaOH (1N) containing 2560 µg/ml (64µg/ml/dish). From the thus prepared parent solutions there were prepared 12 serial dilutions (1:2) down to the concentration of 1.25 µg/ml.
(§4) 0.5 ml of the different dilutions of each product were distributed on dishes containing 19.5 ml of agarized medium (TSA), maintained in a fluid state at the temperature of 50°C. After slight stirring, the dishes were made to solidify and dry under hood (laminar flow).
(§5) The MIC tests (Least or "Minimum" Inhibiting Concentration) were performed by using a Steers multiwell inoculator having 36 wells, each containing 200 µl of bacterial suspension.
(§6) After inoculation, the dishes were placed into a thermostat and checked after 24 h of incubation at 35°C.
(§7) The MIC is defined as the lowermost product concentration (µg/ml) inhibiting the visible growth of the microorganisms.

[2] = tested on: Staphylococcus aureus ATCC 6538; test: as above; settings: ATCC6538, TSA dishes, 24 h at 35°C, read-out: Minimum Inhibiting Concentration
Protocol: as §1, §2, §3, §4, §5, §6, §7

Escherichia coli CNUR 8 = test: as above; settings: CNUR8, TSA dishes, 24 h at 35°C, read-out: Minimum Inhibiting Concentration
Protocol: as §1, §2, §3, §4, §5, §6, §7

[3] = tested on: Pseudomonas aeruginosa ATCC 9027; test: as above; settings: ATCC9027, TSA dishes, 24 h at 35°C, read-out: Minimum Inhibiting Concentration
Protocol: as §1, §2, §3, §4, §5, §6, §7

Escherichia coli 120 = test: as above; settings: TSA dishes, 24 h at 35°C, read-out: Minimum Inhibiting Concentration
Protocol: as §1, §2, §3, §4, §5, §6, §7

[4] = tested on: Enterobacter cloacae OMNF 1153; test: as above; settings: OMNF1153, TSA dishes, 24 h at 35°C, read-out: Minimum Inhibiting Concentration
Protocol: as §1, §2, §3, §4, §5, §6, §7

[5] = tested on: Staphylococcus epidermidis HCF Berset C.; test: as above; settings: TSA dishes, 24 h at 35°C, read-out: Minimum Inhibiting Concentration
Protocol: as §1, §2, §3, §4, §5, §6, §7

[6] = tested on: Staphylococcus aureus MPR 5; test: as above; settings: MPR5, TSA dishes, 24 h at 35°C, read-out: Minimum Inhibiting Concentration
Protocol: as §1, §2, §3, §4, §5, §6, §7

Shighella enteritidis = test: as above; settings: TSA dishes, 24 h at 35°C, read-out: Minimum Inhibiting Concentration
Protocol: as §1, §2, §3, §4, §5, §6, §7

[7] = tested on: Staphylococcus epidermidis CPHL A2; test: as above; settings: CPHLA2, TSA dishes, 24 h at 35°C, read-out: Minimum Inhibiting Concentration
Protocol: as §1, §2, §3, §4, §5, §6, §7

Escherichia coli CNUR 1 = test: as above; settings: CNUR1, TSA dishes, 24 h at 35°C, read-out: Minimum Inhibiting Concentration
Protocol: as §1, §2, §3, §4, §5, §6, §7

Escherichia coli ISF 432 = test: as above; settings: ISF432, TSA dishes, 24 h at 35°C, read-out: Minimum Inhibiting Concentration
Protocol: as §1, §2, §3, §4, §5, §6, §7

[8] = tested on: Streptococcus facealis LEP Br.; test: as above; settings: TSA dishes, 24 h at 35°C, read-out: Minimum Inhibiting Concentration
Protocol: as §1, §2, §3, §4, §5, §6, §7

[9] = tested on: Providencia stuardii CNUR 5; test: as above; settings: CNUR5, TSA dishes, 24 h at 35°C, read-out: Minimum Inhibiting Concentration
Protocol: as §1, §2, §3, §4, §5, §6, §7

[10] = tested on: Escherichia coli ATCC 8739; test: as above; settings: ATCC8739, TSA dishes, 24 h at 35°C, read-out: Minimum Inhibiting Concentration
Protocol: as §1, §2, §3, §4, §5, §6, §7

[11] = tested on: Enterobacter cloacae OMNF 1174; test: as above; settings: OMNF1174, TSA dishes, 24 h at 35°C, read-out: Minimum Inhibiting Concentration
Protocol: as §1, §2, §3, §4, §5, §6, §7

Proteus vulgaris CNUR 6 = test: as above; settings: CNUR6, TSA dishes, 24 h at 35°C, read-out: Minimum Inhibiting Concentration
Protocol: as §1, §2, §3, §4, §5, §6, §7

[12] = tested on: Pseudomonas aeruginosa CNUR 4; test: as above; settings: CNUR4, TSA dishes, 24 h at 35°C, read-out: Minimum Inhibiting Concentration
Protocol: as §1, §2, §3, §4, §5, §6, §7

[13] = tested on: Acinebacter calcoloaceticus OSMPV 1130; test: as above; settings: TSA dishes, 24 h at 35°C, read-out: Minimum Inhibiting Concentration
Protocol: as §1, §2, §3, §4, §5, §6, §7

[14] = tested on: Klebsiella pneumoniae ATCC 10031; test: as above; settings: ATCC10031, TSA dishes, 24 h at 35°C, read-out: Minimum Inhibiting Concentration
Protocol: as §1, §2, §3, §4, §5, §6, §7

Gram - = test: MIC test, average over the 15 gram-negative test germs; settings: 24 h
Protocol: as §1, §2, §3, §4, §5, §6, §7

Gram + = test: MIC test, average over the 5 gram-positive test germs; settings: 24 h
Protocol: as §1, §2, §3, §4, §5, §6, §7

[15] = geometrical average of the MIC over the 15 Gram - strains, read-out: Geometrical Average
[16] = mean log of the MIC over the 15 Gram - strains, read-out: Log (converted)
[17] = geometrical average of the MIC over the 5 Gram + strains, read-out: Geometrical Average

| SMILES | MIC [1] [µg/mL] | MIC [2] [µg/mL] | MIC (Escherichia coli CNUR 8) [µg/mL] | MIC [3] [µg/mL] | MIC (Escherichia coli 120) [µg/mL] | MIC [4] [µg/mL] | MIC [5] [µg/mL] | MIC [6] [µg/mL] | MIC (Shighella enteritidis) [µg/mL] | MIC [7] [µg/mL] | MIC (Escherichia coli CNUR 1) [µg/mL] | MIC (Escherichia coli ISF 432) [µg/mL] | MIC [8] [µg/mL] | MIC [9] [µg/mL] | MIC [10] [µg/mL] | MIC [11] [µg/mL] | MIC (Proteus vulgaris CNUR 6) [µg/mL] | MIC [12] [µg/mL] | MIC [13] [µg/mL] | MIC [14] [µg/mL] | other results |
| --- | --- | --- | --- | --- | --- | --- | --- | --- | --- | --- | --- | --- | --- | --- | --- | --- | --- | --- | --- | --- | --- |
| CN1CCN(c2cc3c(cc2N)c(=O)c(C(=O)O)cn3C(C)(C)C)CC1 [Compound 44, 6-amino-1-terbutyl-7-(4-methyl-1-piperazinyl)-1,4-dihidro-4-oxo-quinoline carboxylic acid] | 32 (≈ 89.3 µM) | 2 (≈ 5.58 µM) | 0.5 (≈ 1.39 µM) | 4 (≈ 11.2 µM) | 0.5 (≈ 1.39 µM) | 2 (≈ 5.58 µM) | 4 (≈ 11.2 µM) | 2 (≈ 5.58 µM) | 1 (≈ 2.79 µM) | 2 (≈ 5.58 µM) | 1 (≈ 2.79 µM) | 0.06 (≈ 0.167 µM) | 32 (≈ 89.3 µM) | 4 (≈ 11.2 µM) | 0.06 (≈ 0.167 µM) | 1 (≈ 2.79 µM) | 128 (≈ 357 µM) | 128 (≈ 357 µM) | 4 (≈ 11.2 µM) | 0.06 (≈ 0.167 µM) | MIC (Gram -; [15]): 1.73 µg/mL (≈ 4.82 µM); MIC (Gram -; [16]): 1.73 µg/mL (≈ 4.81 µM); MIC (Gram +; read-out: Log (converted)): 4 µg/mL (≈ 11.2 µM) |
| CC(C)(C)n1cc(C(=O)O)c(=O)c2cc(N)c(N3CCSCC3)cc21 [Compound 46, 6-amino-1-terbutyl-7-(1-thiomorpholinyl)-1,4-dihydro-4-oxo-quinoline carboxylic acid] | 16 (≈ 44.3 µM) | 0.25 (≈ 0.692 µM) | 0.25 (≈ 0.692 µM) | 4 (≈ 11.1 µM) | 0.25 (≈ 0.692 µM) | 2 (≈ 5.53 µM) | 0.5 (≈ 1.38 µM) | 0.25 (≈ 0.692 µM) | 2 (≈ 5.53 µM) | 0.5 (≈ 1.38 µM) | 1 (≈ 2.77 µM) | 0.03 (≈ 0.083 µM) | 8 (≈ 22.1 µM) | 4 (≈ 11.1 µM) | 0.06 (≈ 0.166 µM) | 2 (≈ 5.53 µM) | 128 (≈ 354 µM) | 128 (≈ 354 µM) | 0.5 (≈ 1.38 µM) | 0.03 (≈ 0.083 µM) | MIC (Gram -; [15]): 1.31 µg/mL (≈ 3.62 µM); MIC (Gram -; [16]): 1.31 µg/mL (≈ 3.62 µM); MIC (Gram +; [17]): 0.66 µg/mL; MIC (Gram +; read-out: Log (converted)): 0.659 µg/mL (≈ 1.82 µM) |
| CC(C)(C)n1cc(C(=O)O)c(=O)c2cc(N)c(N3CCc4ccccc4C3)cc21 [Compound 47, 6-amino-1-terbutyl-7-[2-(1,2,3,4-tetrahydroisoquinolinyl)]-1,4-dihydro-4-oxo-quinoline carboxylic acid] | 64 (≈ 163 µM) | 0.25 (≈ 0.639 µM) | 2 (≈ 5.11 µM) | 32 (≈ 81.7 µM) | 2 (≈ 5.11 µM) | 16 (≈ 40.9 µM) | 1 (≈ 2.55 µM) | 0.5 (≈ 1.28 µM) | 8 (≈ 20.4 µM) | 0.5 (≈ 1.28 µM) | 8 (≈ 20.4 µM) | 0.12 (≈ 0.307 µM) | 8 (≈ 20.4 µM) | 4 (≈ 10.2 µM) | 0.12 (≈ 0.307 µM) | 8 (≈ 20.4 µM) | 128 (≈ 327 µM) | 128 (≈ 327 µM) | 2 (≈ 5.11 µM) | 0.12 (≈ 0.307 µM) | MIC (Gram -; [15]): 4.77 µg/mL (≈ 12.2 µM); MIC (Gram -; [16]): 4.78 µg/mL (≈ 12.2 µM); MIC (Gram +; [17]): 0.871 µg/mL; MIC (Gram +; read-out: Log (converted)): 0.871 µg/mL (≈ 2.22 µM) |
